Test results taken from PMC5991599, “Anti‐tumor efficacy of a novel CLK inhibitor via targeting RNA splicing and MYC‐dependent vulnerability” (EMBO Molecular Medicine, 2018).

How the values were obtained:
[1] = test system: DAUDI; test: Panel of growth inhibition assays (OncoPanel 240); type: cell-based; details: Homo sapiens, 72 h, lymphoma, read-out: IC50 (Oncopanel, cell count)
Procedure: (§1) The KINOMEScan‐based kinase selectivity assay was performed at the DiscoverX Corporation (Fremont, CA, USA). The panel of growth inhibition assay and subsequent bioinformatics analysis (Fig EV1) were performed at Eurofins Inc. (St. Charles, MO, USA), using OncoPanel 240 or 60. Details of the procedures of cell proliferation assay, caspase‐3/7 activity assay, immunoblotting, and immunohistochemistry are described in Appendix Supplementary Methods.
(§2) Panel of growth inhibition assay and subsequence bioinformatics analysis (at […]
(§3) A growth inhibition assay panel and subsequent bioinformatics analysis were performed at Eurofins Inc. (MO, U.S.A.) by utilizing Oncopanel240 or 60.
(§4) According to the study reports from Eurofins Inc., cells were seeded into 384 well plates at a single cell density in standardized media. After 24 hours, the test compounds were added and the plate was incubated continuously for 72 hours. Cells were then fixed and stained to visualize nuclei. The number of nuclei was counted and normalized.
(§5) Cellular response parameters were calculated using nonlinear regression to a sigmoidal single-site dose response model and the IC50 value of each cell line was calculated.
(§6) Genomic features were binned into six distinct categories, each of which was considered to be a “biomarker-positive” grouping: Mutated (non-synonymous, coding, and non-coding mutations), Amplified, Deleted, Overexpressed, Mutated or amplified (gain-of-function), and Mutated or deleted (loss-of-function). Two orthogonal significance tests were performed on each genomic feature as follows.
(§7) Student’s t-test: For each genomic feature within each of the six above categories, IC50 cell count values for biomarker-positive and biomarker-negative groups were […]

[2] = test system: MOLT16; test: Panel of growth inhibition assays (OncoPanel 240); type: cell-based; details: Homo sapiens, MOLT-16; 72 h; leukemia; read-out: IC50 (Oncopanel, cell count)
Procedure: as §1, §2, §3, §4, §5, §6, §7

[3] = test system: 786-O; test: Panel of growth inhibition assays (OncoPanel 240); type: cell-based; details: Homo sapiens, 786-0; 72 h; kidney cancer; read-out: IC50 (nmol/L) Oncopanel
Procedure: as §1, §2, §3, §4, §5, §6, §7

[4] = test system: DB; test: Panel of growth inhibition assays (OncoPanel 240); type: cell-based; details: Homo sapiens, 72 h, lymphoma, read-out: IC50 (Oncopanel, cell count)
Procedure: as §1, §2, §3, §4, §5, §6, §7

[5] = test system: MDA-MB-468; test: Panel of growth inhibition assays (OncoPanel 240); type: cell-based; details: Homo sapiens, 72 h, breast cancer, read-out: IC50 (nmol/L) Oncopanel
Procedure: as §1, §2, §3, §4, §5, §6, §7

[6] = test system: DOHH2; test: Panel of growth inhibition assays (OncoPanel 240); type: cell-based; details: Homo sapiens, DOHH-2; 72 h; lymphoma; read-out: IC50 (Oncopanel, cell count)
Procedure: as §1, §2, §3, §4, §5, §6, §7

[7] = test system: NALM6; test: Panel of growth inhibition assays (OncoPanel 240); type: cell-based; details: Homo sapiens, NALM-6; 72 h; leukemia; read-out: IC50 (Oncopanel, cell count)
Procedure: as §1, §2, §3, §4, §5, §6, §7

[8] = test system: EM2; test: Panel of growth inhibition assays (OncoPanel 240); type: cell-based; details: Homo sapiens, EM-2; 72 h; leukemia; read-out: IC50 (Oncopanel, cell count)
Procedure: as §1, §2, §3, §4, §5, §6, §7

[9] = test system: CCRF-CEM; test: Panel of growth inhibition assays (OncoPanel 240); type: cell-based; details: Homo sapiens, 72 h, leukemia, read-out: IC50 (nmol/L) Cell count
Procedure: as §1, §2, §3, §4, §5, §6, §7

[10] = test system: THP1; test: Panel of growth inhibition assays (OncoPanel 240); type: cell-based; details: Homo sapiens, THP-1; 72 h; leukemia; read-out: IC50 (Oncopanel, cell count)
Procedure: as §1, §2, §3, §4, §5, §6, §7

[11] = test system: BV173; test: Panel of growth inhibition assays (OncoPanel 240); type: cell-based; details: Homo sapiens, BV-173; 72 h; leukemia; read-out: IC50 (Oncopanel, cell count)
Procedure: as §1, §2, §3, §4, §5, §6, §7

[12] = test system: MV-4-11; test: Panel of growth inhibition assays (OncoPanel 240); type: cell-based; details: Homo sapiens, MV4-11; 72 h; leukemia; read-out: IC50 (Oncopanel, cell count)
Procedure: as §1, §2, §3, §4, §5, §6, §7

[13] = test system: RPMI8226; test: Panel of growth inhibition assays (OncoPanel 240); type: cell-based; details: Homo sapiens, RPMI-8226; 72 h; myeloma; read-out: IC50 (Oncopanel, cell count)
Procedure: as §1, §2, §3, §4, §5, §6, §7

[14] = test system: MYC-driven breast tumor allograft; test: Efficacy study in MMTV-MYC allograft model; type: in vivo, Balb/c nude mice; details: 50 mg/kg, twice daily on 2 days per week
Procedure: The transgenic MMTV‐MYC model was generated using the MMTV promoter as previously described (Muller et al, 1988) and was obtained from the Mouse Models of Human Cancer Consortium. The MYC‐driven breast tumor allograft model was established from a primary tumor of this model (females). Tumor cells were isolated using a cell strainer in the presence of RPMI. Viable cell count was determined, and 0.1 × 10^6 cells per mouse were subcutaneously injected in Balb/c nude animals (12‐week‐old females, Taconic Biosciences, Hudson, NY, USA) for subsequent propagation in the presence of Matrigel (BD, Franklin Lakes, NJ, USA) After two rounds of in vivo propagation, the tumor material was cryopreserved in liquid nitrogen. A small piece of the tumor was subcutaneously inoculated into Balb/c nude mice (7‐ to 8‐week‐old females), and the tumors were used for efficacy assessment.
(§8) Tumor volume=long diameter×short diameter×short diameter×(1/2)
(§9) Mice having a tumor of size approximately 200 mm^3 were used in efficacy or in vivo pharmacodynamics studies. T‐025 was dissolved in 0.5% methylcellulose solution. For the efficacy study, after randomized grouping, mice were treated with T‐025 twice daily once or twice weekly for 2 or 3 weeks. The mouse tumor volume and body weight were measured every 2–3 days.

[15] = test system: MV-4-11 AML cell line xenografts; test: Efficacy study in MV-4-11 xenograft model; type: in vivo, Balb/c nude mice; details: 37.5 and 50 mg/kg
Procedure: MDA‐MB‐468 (5 × 10^6), NCI‐H1048 (5 × 10^6), or MV‐4‐11 (2 × 10^6) cells in Matrigel were subcutaneously inoculated into the left flanks of Balb/c nude mice (7‐ to 8‐week‐old females). When xenografted tumors grew to a sufficient volume, the tumor diameter was measured and its volume was calculated as follows:
as §8, §9

[16] = test system: xenografts derived from AML patient (PDX); test: Efficacy study in patient-derived xenograft model of acute myeloid leukemia; type: in vivo, NOG mice; details: 25 and 50 mg/kg, twice daily at twice weekly
Text: To establish the patient‐derived xenograft model, a small piece of tumor purchased from Dr. Naoe at Nagoya University was subcutaneously inoculated into NOG mice (7‐ to 8‐week‐old females, CIEA Japan, Inc., Kanagawa, Japan). After three rounds of in vivo propagation, tumors were used for efficacy assessment.
as §8, §9

[17] = target: CLK1 (Homo sapiens, UniProt P49759); test: Enzymatic assay; type: biochemical; details: read-out: IC50 (nmol/L) CLK1
Sequence of CLK1 (P49759 whole entry): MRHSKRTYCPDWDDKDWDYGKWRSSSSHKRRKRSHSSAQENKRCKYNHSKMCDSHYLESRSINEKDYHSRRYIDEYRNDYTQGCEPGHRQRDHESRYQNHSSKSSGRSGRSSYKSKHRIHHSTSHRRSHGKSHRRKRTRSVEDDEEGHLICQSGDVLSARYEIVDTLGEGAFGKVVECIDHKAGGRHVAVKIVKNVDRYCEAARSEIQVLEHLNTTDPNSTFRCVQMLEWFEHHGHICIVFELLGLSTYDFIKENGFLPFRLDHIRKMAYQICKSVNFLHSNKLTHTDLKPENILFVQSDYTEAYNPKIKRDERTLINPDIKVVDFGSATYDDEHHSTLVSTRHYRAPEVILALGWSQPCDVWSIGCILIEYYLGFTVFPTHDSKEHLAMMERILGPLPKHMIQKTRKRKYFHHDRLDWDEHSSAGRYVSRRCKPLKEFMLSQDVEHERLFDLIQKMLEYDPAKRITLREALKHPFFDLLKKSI
Text: (§10) Appendix Supplemental Methods

[18] = target: CLK3 (Homo sapiens, UniProt P49761); test: Enzymatic assay; type: biochemical; details: read-out: IC50 (nmol/L) CLK3
Sequence of CLK3 (P49761 whole entry): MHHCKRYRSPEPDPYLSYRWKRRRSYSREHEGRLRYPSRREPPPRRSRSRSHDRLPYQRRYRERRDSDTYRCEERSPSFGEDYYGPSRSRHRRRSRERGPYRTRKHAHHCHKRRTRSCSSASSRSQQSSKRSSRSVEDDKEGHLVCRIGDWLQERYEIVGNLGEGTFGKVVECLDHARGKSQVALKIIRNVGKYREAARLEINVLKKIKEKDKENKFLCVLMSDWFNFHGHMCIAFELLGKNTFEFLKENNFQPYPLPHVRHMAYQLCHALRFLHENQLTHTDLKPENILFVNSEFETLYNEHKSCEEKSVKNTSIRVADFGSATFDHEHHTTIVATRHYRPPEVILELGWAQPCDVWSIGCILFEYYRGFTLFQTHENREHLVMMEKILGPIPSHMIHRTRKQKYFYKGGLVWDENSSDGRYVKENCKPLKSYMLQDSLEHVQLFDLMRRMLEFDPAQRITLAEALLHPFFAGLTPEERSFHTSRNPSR
Text: as §10

[19] = target: CLK2 (Homo sapiens, UniProt P49760); test: Enzymatic assay; type: biochemical; details: read-out: IC50 (nmol/L) CLK2
Sequence of CLK2 (P49760 whole entry): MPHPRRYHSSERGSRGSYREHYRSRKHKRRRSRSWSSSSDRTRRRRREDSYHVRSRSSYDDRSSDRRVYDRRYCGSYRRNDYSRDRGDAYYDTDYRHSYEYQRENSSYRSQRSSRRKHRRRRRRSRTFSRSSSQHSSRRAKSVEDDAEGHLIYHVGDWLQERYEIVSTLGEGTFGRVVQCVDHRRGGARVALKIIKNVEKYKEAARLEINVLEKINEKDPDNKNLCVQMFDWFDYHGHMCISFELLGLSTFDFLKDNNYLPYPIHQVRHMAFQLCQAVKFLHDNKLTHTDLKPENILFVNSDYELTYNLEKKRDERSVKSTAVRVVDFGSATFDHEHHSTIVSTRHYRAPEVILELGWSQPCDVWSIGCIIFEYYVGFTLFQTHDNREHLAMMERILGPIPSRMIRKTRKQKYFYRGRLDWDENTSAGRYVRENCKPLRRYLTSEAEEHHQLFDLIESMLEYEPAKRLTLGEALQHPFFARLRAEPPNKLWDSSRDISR
Text: as §10

[20] = target: DYRK1B (Homo sapiens, UniProt Q9Y463); test: Enzymatic assay; type: biochemical; details: read-out: IC50 (nmol/L) DYRK1B
Sequence of DYRK1B (Q9Y463 whole entry): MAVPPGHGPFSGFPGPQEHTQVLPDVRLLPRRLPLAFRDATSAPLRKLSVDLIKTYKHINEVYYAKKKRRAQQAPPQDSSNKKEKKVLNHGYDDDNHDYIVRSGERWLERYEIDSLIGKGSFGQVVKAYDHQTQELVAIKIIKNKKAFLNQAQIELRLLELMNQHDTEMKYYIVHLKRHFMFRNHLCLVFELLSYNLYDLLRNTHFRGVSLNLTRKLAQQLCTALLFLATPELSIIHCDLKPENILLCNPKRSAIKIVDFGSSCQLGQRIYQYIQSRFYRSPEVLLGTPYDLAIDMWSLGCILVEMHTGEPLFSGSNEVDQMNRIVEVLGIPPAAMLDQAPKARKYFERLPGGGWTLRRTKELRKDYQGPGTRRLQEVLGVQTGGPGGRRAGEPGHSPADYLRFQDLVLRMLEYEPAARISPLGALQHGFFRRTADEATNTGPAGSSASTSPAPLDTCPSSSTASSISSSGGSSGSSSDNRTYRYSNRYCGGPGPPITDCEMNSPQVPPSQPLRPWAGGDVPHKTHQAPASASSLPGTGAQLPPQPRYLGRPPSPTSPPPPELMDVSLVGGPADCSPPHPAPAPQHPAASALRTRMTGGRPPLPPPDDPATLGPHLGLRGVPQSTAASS
Text: as §10

For `CNc1nc(NCc2ncccn2)c2c(-c3ccc4ncccc4c3)c[nH]c2n1` [T-025, N ^2‐methyl‐N ^4‐[pyrimidin‐2‐ylmethyl]‐5‐[quinolin‐6‐yl]‐7H‐pyrrolo[2,3‐d]pyrimidine‐2,4‐diamine], the IC50 [1] was 52.5 nM, the IC50 [2] was 20.6 nM and the IC50 [3] was 239 nmol/L. For the same compound, the IC50 [4] was 43.3 nM, the IC50 [5] was 47.1 nmol/L and the IC50 [6] was 39.5 nM. The IC50 [7] was 52.6 nM, the IC50 [8] was 104 nM and the IC50 [9] was 45.9 nmol/L. It also gave an IC50 [10] of 228 nM, an IC50 [11] of 21.8 nM and an IC50 [12] of 30.1 nM. For the same compound, the IC50 [13] was 99.3 nM, the “anti-tumor efficacy, tumor growth” value [14] was “strongly suppressed growth of the allograft tumors” and the body weight loss [14] was “without inducing body weight losses”. The “anti-tumor efficacy, tumor volume” value [15] was “profound anti‐tumor efficacies”, the “anti-tumor efficacy, tumor volume” value [16] was “profound anti‐tumor efficacies” and the IC50 [17] was 0.93 nmol/L. The IC50 [18] was 14 nmol/L, the IC50 [19] was 1 nmol/L and the IC50 [20] was 1.5 nmol/L.
